Results from article PMC9966370, “Biological Evaluation and In Vitro Characterization of ADME Profile of In-House Pyrazolo[3,4-d]pyrimidines as Dual Tyrosine Kinase Inhibitors Active against Glioblastoma Multiforme” (Pharmaceutics, 2023).
Like-named read-outs stand apart in the source and are kept apart here.

Experiments:
[1] = test system: LN229 GBM cell line; assay: antiproliferative activity, MTT assay, LN229; type: cell-based; settings: Homo sapiens, LN-229, 72 h treatment
Description: (§1) Cell-based assays were performed using four GBM cell lines, i.e., U-87, LN18, LN229, and DBTRG, cultured in Dulbecco’s modified Eagle medium (DMEM) (U-87, LN18, and LN229) or Roswell Park Memorial Institute medium (RPMI 1640) (DBTRG). Both media were implemented with 10% fetal bovine serum (FBS), 2 mM L-glutamine, and 10,000 units/mL penicillin/streptomycin at 37 °C in a 5% CO2 atmosphere. […] The final concentration of DMSO used never exceeded 0.5% v/v, and appropriate controls were always performed in each assay. […] These were cultured in DMEM supplemented with 10% FBS, 2 mM L-glutamine, and 10,000 units/mL penicillin/streptomycin at 37 °C in a 5% CO2 atmosphere. The protocol used to assess the cytotoxic effect on both healthy cell lines was the same described above for the antiproliferative assay. For both the antiproliferative and the cytotoxic assays, 3-(4,5-dimethylthiazol-2-yl)-2,5-diphenyltetrazolium bromide (MTT) was used to assess cell viability as previously described. Briefly, 150 μL of MTT (5 mg/mL in FBS-free culture medium) was added to each well, and the plates incubated for 4 h in a 5% CO2 atmosphere at 37 °C. Afterward, formazan violet crystals were solubilized in 150 μL of isopropanol, and the absorbance was quantified at 570 nm using a Multiskan SkyHigh Microplate Spectrophotometer (ThermoFisher, Waltham, MA, USA). Cell viability was expressed as a percentage of DMSO-treated cells (controls), taken as 100%. […] To support MTT data, cytotoxicity assays was always paralleled by a careful observation of cells under a phase-contrast light microscope, as described in USP 28 (United States Pharmacopeia edition 2005) as an alternative method. This analysis was performed by an expert operator blind to the treatment, and exemplificative photos representing the effects of compound 5 on LN229 and DBTRG cells are reported in Figures S2 and S3 (Supplementary Materials).

[2] = test system: DBTRG GBM cell line; assay: antiproliferative activity, MTT assay, DBTRG; type: cell-based; settings: Homo sapiens, 72 h treatment
Description: as §1

[3] = test system: LN18 GBM cell line; assay: antiproliferative activity, MTT assay, LN18; type: cell-based; settings: Homo sapiens, LN-18, 72 h treatment
Description: as §1

[4] = test system: U-87 GBM cell line; assay: antiproliferative activity, MTT assay, U-87; type: cell-based; settings: Homo sapiens, 72 h treatment
Description: as §1

[5] = PAMPA, GI permeability; type: in vitro ADME; settings: RT; for GI membrane retention (MR%): 5 h, pH 7.4; for Papp at 5 h, 500 µM: pH 7.4, PAMPA
Description: (§2) UV/LC–MS chromatographic analyses were carried out using an Agilent 1100 LC/MSD VL system (G1946C) purchased from Agilent Technologies (Palo Alto, CA, USA). […] The analysis began with 5% B (t = 0–1 min), increased to 95% (t = 1–10 min), maintained at 95% (t = 10–19 min), and finally returned to 5% […]. The analyses were performed at a flow rate of 0.6 mL/min, UV detection was monitored at 254 nm, and spectra were acquired over the scan range of m/z 100–1000 in both positive and negative modes.
(§3) The DMSO stock of each compound was diluted with phosphate buffer (PBS 25 mM, pH 7.4) to a final concentration of 500 µM in order to obtain the “donor”. For GI and BBB permeability, filters were coated with 10 µL of 1% w/v dodecane phosphatidylcholine solution or 5 µL of 10% w/v CHCl3/dodecane brain polar lipid solution. The donor (150 µL) was poured over the artificial membranes on the filter plate. DMSO/PBS (300 µL, 1:1 v/v) was then added to the acceptor wells. After assembling the sandwich plates, the experiments were run for 5 h at room temperature (RT). Lastly, the amount of compound passed though the artificial membranes was determined using the UV/LC–MS method described above. Apparent permeability (Papp) and membrane retention (MR%) were determined as previously described.

[6] = PAMPA, BBB permeability; type: in vitro ADME; settings: RT; for BBB membrane retention (MR%): 5 h, pH 7.4; for Papp at 5 h, 500 µM: pH 7.4, PAMPA
Description: as §2, §3

[7] = metabolic stability assay in human liver microsomes; type: in vitro ADME; settings: HLM 0.2 mg/mL, NADPH, 1 h, 37 °C
Description: as §2
Each DMSO compound solution was incubated for 1 h at 37 °C in the presence of 500 µL of PBS (25 mM, pH 7.4), human liver microsomal (HLM) proteins (0.2 mg/mL), and 10 mM NADPH solution in MgCl2 (48 mM). The reactions were stopped with 1.0 mL of cold ACN. The samples were centrifuged (4000 rpm for 10 min), and the supernatants were collected, dried under N2 flow, and suspended in 100 µL of methanol (MeOH). Parent drugs and metabolites were determined using the previously described HPLC/UV–MS method. The percentage metabolic stability was calculated by comparing the metabolized and unmetabolized compounds.

[8] = test system: DBTRG cells; assay: cell-cycle analysis by flow cytometry, DBTRG; type: cell-based, human; settings: 72 h at IC50 (8.5 µM)
[9] = biological target: T1, c-Src (Homo sapiens, UniProt P12931); assay: cell-free enzymatic assay (ADP-Glo), c-Src; type: biochemical; settings: 100 µM ATP, 500 µM Src-peptide; read-out: c-Src Ki
T1 construct: purchased Promega (Madison, WI, USA)
T1 sequence (P12931 whole entry): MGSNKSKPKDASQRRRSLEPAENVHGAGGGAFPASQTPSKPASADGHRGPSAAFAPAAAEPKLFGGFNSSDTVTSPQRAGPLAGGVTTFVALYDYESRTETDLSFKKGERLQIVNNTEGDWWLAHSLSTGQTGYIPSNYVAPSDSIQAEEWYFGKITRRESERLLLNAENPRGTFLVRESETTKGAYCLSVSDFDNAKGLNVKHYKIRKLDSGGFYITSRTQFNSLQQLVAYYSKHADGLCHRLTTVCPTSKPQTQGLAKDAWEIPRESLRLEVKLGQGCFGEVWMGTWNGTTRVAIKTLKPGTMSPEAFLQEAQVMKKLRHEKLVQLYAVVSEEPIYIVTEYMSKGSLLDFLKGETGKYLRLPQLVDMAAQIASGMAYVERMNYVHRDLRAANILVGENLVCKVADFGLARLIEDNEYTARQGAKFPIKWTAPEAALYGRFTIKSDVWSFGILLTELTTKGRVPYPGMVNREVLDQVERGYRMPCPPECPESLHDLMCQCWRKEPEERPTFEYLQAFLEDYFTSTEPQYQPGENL
Description: The reactions were carried out in accordance with the manufacturer’s instructions, with minor modifications. The experiments were run using all substrates at least twice the concentration of apparent Km. […] All reactions were run out at 30 °C for 10 min with 10–50 ng of enzyme and 10 µL of 10% DMSO. Protein low-binding tubes were used to prevent peptide adsorption onto the plastic surface. To detect kinase activity, the ADP-Glo Kinase Assay (Promega, Madison, WI, USA) was used according to the manufacturer’s protocol. Into white 384-well plates, reactions were stopped for 50 min at RT by adding 10 µL of ADP-Glo Reagent (Promega, Madison, WI, USA). After 30 min, 20 µL of Detection Reagent (Promega, Madison, WI, USA) was added, and the reaction was read using a GloMax Discover microplate reader (Promega, Madison, WI, USA). […] Compounds analyzed were considered to act as ATP-competitive inhibitors.

[10] = test system: LN229 cells; assay: reversible/irreversible effect on LN229 cell death (MTT); type: cell-based, human; settings: for further decrease in cell viability: 24 h treatment followed by 48 h without compound, vs 24 h
[11] = test system: keratinocytes HaCaT; assay: cytotoxicity on nontumoral healthy cells, MTT assay, HaCaT; type: cell-based, human; settings: 72 h treatment
Description: (§4) The protocol used to assess the cytotoxic effect on both healthy cell lines was the same described above for the antiproliferative assay. For both the antiproliferative and the cytotoxic assays, 3-(4,5-dimethylthiazol-2-yl)-2,5-diphenyltetrazolium bromide (MTT) was used to assess cell viability as previously described [20]. […] Afterward, formazan violet crystals were solubilized in 150 μL of isopropanol, and the absorbance was quantified at 570 nm using a Multiskan SkyHigh Microplate Spectrophotometer (ThermoFisher, Waltham, MA, USA). Cell viability was expressed as a percentage of DMSO-treated cells (controls), taken as 100%.

[12] = as above; type: cell-based, human; settings: human, HaCaT keratinocytes, 72 h treatment
Description: as §4

[13] = test system: LN229 cells; assay: T-scratch assay (cell migration); type: cell-based, human; settings: for wound closure: after 72 h; for wound left opened: all timepoints (24–48–72 h)
Description: The scratched area was observed and photographed at 10× magnification after 0–24–48–72 h (see Figure S5, Supplementary Materials).

[14] = test system: LN229 cells; assay: cell-cycle analysis by flow cytometry, LN229; type: cell-based, human; settings: LN229, 72 h at IC50 (6.9 µM)
[15] = test system: fibroblasts FIBRO 2-93; assay: cytotoxicity on nontumoral healthy cells, MTT assay, FIBRO 2-93; type: cell-based, human
Description: as §4

[16] = as above; type: cell-based, human; settings: human, FIBRO 2-93 healthy fibroblasts, 72 h treatment, MTT
Description: as §4

[17] = HLM, previously published, cited from earlier work
[18] = test system: U-87 GBM cell line; settings: previously published; cited from earlier work

Row | Structure (SMILES) | IC50 [1] | IC50 [2] | IC50 [3] | melting point | IC50 [4] | GI membrane retention (MR%) [5] | Papp at 5 h, 500 µM [5] | BBB membrane retention (MR%) [6] | Papp at 5 h, 500 µM [6] | Metabolic Stability [7] | Ki [9] | other results
1 | ClC(Cn1ncc2c(NC3CC3)ncnc21)c1ccccc1 (centres unmarked) [Compound 2] | > 100 µM | > 100 µM | 49.4 ± 2.8 µM | 194 to 195 °C | > 100 µM | 34.7% | 6.46 ×10⁻⁶ cm/s | 55.0% | 4.96 ×10⁻⁶ cm/s |  |  | 
2 | Fc1ccccc1CNc1ncnc2c1cnn2CC(Cl)c1ccccc1 (centres unmarked) [Compound 3] | 29.2 ± 2.6 µM | 15.1 ± 2.1 µM | 27.5 ± 2.1 µM |  | 40.2 ± 3.6 µM | 7.3% | ≥ 10 ×10⁻⁶ cm/s | 4.8% | ≥ 10 ×10⁻⁶ cm/s | 80.4% |  | 
3 | Fc1ccc(CNc2ncnc3c2cnn3CC(Cl)c2ccccc2)cc1 (centres unmarked) [Compound 4] | > 100 µM | 68.5 ± 3.8 µM | 9 ± 1.2 µM | 161 to 162 °C | 29.8 ± 2.5 µM | 7.8% | ≥ 10 ×10⁻⁶ cm/s | 2.1% | ≥ 10 ×10⁻⁶ cm/s |  |  | 
4 | Fc1ccc(C(Cl)Cn2ncc3c(NCc4ccccc4)ncnc32)cc1 (centres unmarked) [Compound 5] | 6.9 ± 0.5 µM | 8.5 ± 1.4 µM | 10.8 ± 1.4 µM | 143 to 144 °C | 6.8 ± 0.3 µM | 9.2% | ≥ 10 ×10⁻⁶ cm/s | 5.6% | ≥ 10 ×10⁻⁶ cm/s | 84.2% | 3.14 ± 0.38 µM | change in cells in G2/M phase vs control [8]: +38.1%; change in cells in sub G0/G1 area vs control [8]: +15.6%; further decrease in cell viability ([10]; 10 µM): ~ −30%; further decrease in cell viability ([10]; 100 µM): ~ −30%; reversibility of cytotoxic effect ([10]; 24 h treatment, 48 h drug-free medium): irreversible cytotoxic effect; CC50 [11]: 126 ± 6.4 µM; CC50 at 72 h [12]: > 90 µM; wound closure ([13]; 0.25 µM): ~60%; wound closure ([13]; 0.5 µM): ~60%; wound left opened ([13]; 2.5 µM): more than 80%; wound left opened ([13]; 5 µM): more than 80%; change in cells in G0/G1 phase vs control [14]: −32.4%; change in cells in sub G0/G1 phase vs control [14]: +32.1%; percentage of cells in the S and G2/M phases vs control [14]: No significant differences; CC50 ([15]; 72 h treatment, MTT): 91.7 ± 5.3 µM; CC50 times higher than IC50 ([15]; CC50 on FIBRO 2-93 and HaCaT vs IC50 on GBM cells): 10 times; CC50 at 72 h [16]: > 90 µM
5 | Fc1ccc(C(Cl)Cn2ncc3c(NCc4ccccc4F)ncnc32)cc1 (centres unmarked) [Compound 6] | 33.8 ± 2.3 µM | 20.1 ± 1.8 µM | 11.7 ± 1.5 µM |  | 32.4 ± 2.7 µM | 10.1% | ≥ 10 ×10⁻⁶ cm/s | 4.4% | ≥ 10 ×10⁻⁶ cm/s | 69.9% | 0.07 ± 0.01 µM | 
6 | Fc1ccc(CNc2ncnc3c2cnn3CC(Cl)c2ccc(Cl)cc2)cc1 (centres unmarked) [Compound 7] | 7.1 ± 1.1 µM | 14.6 ± 0.9 µM | 3.9 ± 0.6 µM |  | 22.7 ± 2.3 µM |  |  | 4.4% | ≥ 10 ×10⁻⁶ cm/s |  | 0.8 ± 0.09 µM | Metabolite Formation M1 ([17]; M1 = M − HCl + O): 4%; Metabolite Formation M3 ([17]; M3 = M—group bearing NH moiety in R2): 2%; CC50 at 72 h [12]: 37.8 ± 4.9 µM; CC50 at 72 h [16]: 28.6 ± 3.7 µM
7 | CSc1nc(NCCc2ccccc2)c2cnn(CC(Cl)c3ccccc3)c2n1 (centres unmarked) [Compound 8] | 26.1 ± 2.8 µM | 31.2 ± 2.5 µM | 5.9 ± 1.1 µM |  | 37.9 ± 3.9 µM | 42.7% | 3.2 ×10⁻⁶ cm/s | 18.3% | 5.96 ×10⁻⁶ cm/s |  |  | 
8 | Fc1cccc(CNc2ncnc3c2cnn3CCc2ccccc2)c1 [Compound 11] | 58.4 ± 3 µM | 69.2 ± 3.9 µM | 34.1 ± 2.9 µM | 113 to 114 °C | 56.9 ± 3.3 µM | 6.7% | ≥ 10 ×10⁻⁶ cm/s | 5.2% | ≥ 10 ×10⁻⁶ cm/s |  |  | 
9 | ClC(Cn1ncc2c(Nc3ccccc3)ncnc21)c1ccc(Br)cc1 (centres unmarked) [Compound 12] | > 100 µM | > 100 µM | > 100 µM |  |  |  |  |  |  |  |  | Metabolic Stability [17]: ≥ 90%; IC50 [18]: 14 ± 1.9 µM
